Data set [1] has as its system mouse macrophage cell line. Particulars: cited from earlier work; for Log EC50: logarithm of EC50 in uM, matches the EC50 values of Weaver et al. (2010).
The conditions of data set [2]: choline salt of the named anion.
The nature of data set [3]: Differential scanning calorimetry of DPPC unilamellar vesicles mixed with test compound (screening assay for toxic membrane interactions). (In DSC, transitions show as peaks or steps in heat flow.)
[4] abbreviates: cellular toxicity, values reproduced from Weaver et al. (2010).
The mark [5] stands for this setting: 10 mM compound, DPPC liposomes, HEPES buffer pH 7.40.
Where [6] appears, read: 10 mM compound, DPPC liposomes, HEPES buffer pH 7.40, scan 20 to 50° C., equilibrium scans.
The mark [7] stands for this setting: 10 mM compound, compared to DPPC control scan from same LUV batch solution.
Setting [8] is: choline salt 10 mM, DPPC vesicle assay, Table 2.
The mark [9] stands for this setting: 10 mM compound, DPPC liposomes, HEPES buffer pH 7.40, NR = not resolvable.
[10] abbreviates: 10 mM compound, initial heating scan.

We go through twelve molecules from US20130089912A1, “METHODS AND COMPOSITIONS FOR THE STABILIZATION OF BIOLOGIC MATERIAL” (priority 2011, published 2013).

Broadly, the EC50 is the concentration needed to bring the measured effect to its halfway point.

Values joined by “and” are separate entries in the source; they are usually repeats but may differ in a detail not shown here. Identical values can stand only once. Counter-ions that a name gives are not always drawn. Like-named read-outs stand apart in the source and are kept apart here. Bounds are passed on as bounds.

Regarding “2-hydroxyethyl(trimethyl)azanium bis(2,4,4-trimethylpentyl)phosphinate [CTMP]”, in data set [1] (setting [4]), the EC50 is below 0.25 mM. Besides, in data set [1], the “Log EC50” value is 2.39 uM. Also, in data set [2], the “Log Pow” value came out at 3.60. Further, in data set [3] (10 mM compound), the “Decrease of peak width (ΔΔT1/2) compared to control lipid vesicles” value amounted to 17%; the “Effect on DPPC main gel-liquid crystal phase transition (in words)” value (“Effect” below) is “large decrease in Tm and enthalpy, and increased cooperativity”; the “Reduction of main transition Tm compared to DPPC alone” value is 21%. Further, in data set [3] (setting [5]), the “Main Transition ΔH” value turned out to be 3.58 kcal/mol and the “Main Transition ΔT(1/2)” value was 1.48 °C. The “Main Transition Tm” value in data set [3] (setting [6]) is 32.6 °C and 33 °C and 32.58 °C. Besides, in data set [3] (setting [7]), the “Change in Main Transition ΔTm” value is reported as −21%, the “Change in Main Transition ΔΔH” value is listed as −52%, the “Change in Main Transition ΔΔT(1/2)” value is on record as −17% and the “Change in Pretransition ΔH” value is listed as −100%. Also, the “Reduction of transition enthalpy (in words)” value in data set [3] (10 mM compound, compared to control lipid vesicles) is on record as “half”. Besides, in data set [3] (10 mM compound, peak normally at approximately 34° C.), the “Pretransition peak of DPPC (in words)” value is “below resolvable limits”. Also, in data set [3] (setting [8]), the “Δ Tm” value is −8.08 C, the “ΔΔ H” value is on record as −2011 cal/mole/ C and the “ΔΔ T(1/2)” value is recorded as −0.37 C.
For “2-hydroxyethyl(trimethyl)azanium bis(2-ethylhexyl)phosphate [CBEH]”, in data set [1] (setting [4]), the EC50 is below 0.3 mM. Also, in data set [3] (setting [5]), the “Main Transition ΔH” value came to 0.077 kcal/mol and the “Main Transition ΔT(1/2)” value came out at 2.95 °C. Further, in data set [3] (setting [6]), the “Main Transition Tm” value was found to be 42.49 °C. Further, the “Pretransition ΔH” value in data set [3] (setting [9]) came out at 0.066 kcal/mol. Besides, in data set [3] (setting [7]), the “Change in Main Transition ΔTm” value is reported as “+2.5%”, the “Change in Main Transition ΔΔH” value is given as −99%, the “Change in Main Transition ΔΔT(1/2)” value is “+16%” and the “Change in Pretransition ΔH” value is reported as −82%. Further, in data set [3] (setting [10]), the Main transition temperature was around 41 °C, the Pretransition temperature was around 33 °C, the “Reduction in main transition enthalpy compared to DPPC in HEPES alone” value is on record as 99% and the “Reduction in pretransition enthalpy compared to DPPC in HEPES alone” value turned out to be 82%. In addition, the “Third prominent peak (subtransition) temperature” value in data set [3] (setting [10]) is 27 °C. Besides, the “New peak Tm” value in data set [3] (DPPC-CBEH dispersions run starting at 10° C., first heating scan) was determined as 21 °C.
Turning to “2-hydroxyethyl(trimethyl)azanium dibutyl phosphate [CDBP]”, the concentration for a half-maximal effect (EC50) in data set [1] (setting [4]) is 9 mM and 9.1 mM. Moreover, the “Effect” value in data set [3] (10 mM compound) was “no statistically significant effect”. In data set [3] (setting [5]), the “Main Transition ΔH” value amounted to 7.831 kcal/mol and the “Main Transition ΔT(1/2)” value was determined as 1.50 °C. For the same molecule, the “Main Transition Tm” value in data set [3] (setting [6]) is 41.05 °C. The “Pretransition ΔH” value in data set [3] (setting [9]) was found to be 0.44 kcal/mol. Moreover, in data set [3] (setting [7]), the “Change in Main Transition ΔTm” value is recorded as −0.5%, the “Change in Main Transition ΔΔH” value is “+2%”, the “Change in Main Transition ΔΔT(1/2)” value is recorded as −6% and the “Change in Pretransition ΔH” value is listed as −20%.
As for `C[N+](C)(C)CCO.[Cl-]` [CCL, choline chloride, reference compound], the EC50 in data set [1] is 34 mM. Further, in data set [3], the “Change in Main Transition ΔTm” value is recorded as “+0.8%”, the “Change in Main Transition ΔΔH” value was “+15%”, the “Change in Main Transition ΔΔT(1/2)” value was −3% and the “Change in Pretransition ΔH” value was “+51%”. Besides, in data set [3] (pH 7.4), the “Main Transition Tm” value amounted to 41.70 °C, the “Main Transition ΔH” value came out at 9.633 kcal/mol, the “Main Transition ΔT(1/2)” value was determined as 1.55 °C and the “Pretransition ΔH” value amounted to 0.378 kcal/mol.
For the molecule `C[N+](C)(C)CCO.O=P([O-])(O)O` [CDHP, 2-hydroxyethyl(trimethyl)azanium dihydrogen phosphate], in data set [1] (setting [4]), the EC50 was 20 mM. In addition, the “Log EC50” value in data set [1] is 4.31 uM. The “Log Pow” value in data set [2] is reported as −3.15. Besides, the “Effect” value in data set [3] (10 mM compound) is listed as “no statistically significant effect”. In addition, in data set [3] (setting [5]), the “Main Transition ΔH” value stood at 7.949 kcal/mol and the “Main Transition ΔT(1/2)” value stood at 1.33 °C. In addition, the “Main Transition Tm” value in data set [3] (setting [6]) turned out to be 41.69 °C. The “Pretransition ΔH” value in data set [3] (setting [9]) was 0.248 kcal/mol. In addition, in data set [3] (setting [7]), the “Change in Main Transition ΔTm” value is recorded as “+0.7%”, the “Change in Main Transition ΔΔH” value is “+3%”, the “Change in Main Transition ΔΔT(1/2)” value is on record as −6% and the “Change in Pretransition ΔH” value is −54%. Besides, in data set [3] (setting [8]), the “Δ Tm” value was “+0.52 C”, the “ΔΔ H” value is −76 cal/mole/ C and the “ΔΔ T(1/2)” value is recorded as 0.131 C.
As for `CC(C)Cc1ccc(C(C)C(=O)[O-])cc1.[Na+]` (stereo not drawn) [Ibuprofen sodium salt, ibuprofen sodium salt, reference compound], in data set [3] (setting [5]), the “Main Transition ΔH” value is 7.222 kcal/mol and the “Main Transition ΔT(1/2)” value was 1.79 °C. Besides, in data set [3] (setting [6]), the “Main Transition Tm” value stood at 38.82 °C. The “Pretransition ΔH” value in data set [3] (setting [9]) stood at 0.375 kcal/mol. Also, in data set [3] (setting [7]), the “Change in Main Transition ΔTm” value is −6%, the “Change in Main Transition ΔΔH” value is recorded as −11%, the “Change in Main Transition ΔΔT(1/2)” value is reported as “+12%” and the “Change in Pretransition ΔH” value is given as −13%.
Regarding `CC(=O)CCC(=O)O` [Levulinate], the “Effect” value in data set [3] (10 mM compound) is “a moderate decrease in Tm, and a large decrease in enthalpy”. Also, in data set [3] (setting [8]), the “Δ Tm” value is reported as −0.21 C, the “ΔΔ H” value was −2155 cal/mole/ C and the “ΔΔ T(1/2)” value is 0.39 C.
As for `[Cl-].[Na+]` [NaCl, sodium chloride, reference compound], in data set [1], the EC50 is 63 mM and 60 mM. Besides, in data set [3], the “Change in Main Transition ΔTm” value is “+0.8%”, the “Change in Main Transition ΔΔH” value is reported as “+17%”, the “Change in Main Transition ΔΔT(1/2)” value is −4% and the “Change in Pretransition ΔH” value is given as “+103%”. In data set [3] (pH 7.4), the “Main Transition Tm” value is 41.72 °C, the “Main Transition ΔH” value stood at 9.823 kcal/mol, the “Main Transition ΔT(1/2)” value was 1.53 °C and the “Pretransition ΔH” value was 0.508 kcal/mol.
Take `CNCCC=C1c2ccccc2CCc2ccccc21` [Nortriptyline hydrochloride, nortriptyline hydrochloride, reference compound]: the “Effect” value in data set [3] (10 mM compound) is reported as “shifted to lower temperatures, with notable main peak broadening”. Further, in data set [3] (setting [5]), the “Main Transition ΔH” value turned out to be 8.078 kcal/mol and the “Main Transition ΔT(1/2)” value came to 1.41 °C. Also, in data set [3] (setting [6]), the “Main Transition Tm” value is 30.66 °C. In addition, in data set [3] (setting [7]), the “Change in Main Transition ΔTm” value is reported as −26%, the “Change in Main Transition ΔΔH” value is recorded as “+8%”, the “Change in Main Transition ΔΔT(1/2)” value is on record as “+6%” and the “Change in Pretransition ΔH” value was −100%.
In the case of choline formate, in data set [3], the “Effect” value is “a moderate increase in Tm and a moderate decrease in enthalpy”; the “Δ Tm” value is “+0.31 C”. Besides, in data set [3] (setting [8]), the “ΔΔ H” value is on record as −733 cal/mole/ C and the “ΔΔ T(1/2)” value was −0.02 C.
For the molecule choline lactate, the “Log Pow” value in data set [2] is given as −1.73. Also, in data set [3] (10 mM compound), the “Effect” value was “a moderate increase in Tm and a moderate decrease in enthalpy”. Also, in data set [3] (setting [8]), the “Δ Tm” value was “+0.37 C”, the “ΔΔ H” value was −480 cal/mole/ C and the “ΔΔ T(1/2)” value is recorded as −0.06 C.
As for choline tartarate, the “Δ Tm” value in data set [3] is listed as “+0.35 C”. For the same molecule, in data set [3] (setting [8]), the “ΔΔ H” value is on record as “+121.9 cal/mole/ C” and the “ΔΔ T(1/2)” value is reported as −0.03 C.
